This assay concerns the target T1, YSK4 (h) (Homo sapiens, UniProt Q56UN5).
T1 construct: purchased Millipore
T1 sequence (Q56UN5 1-1328): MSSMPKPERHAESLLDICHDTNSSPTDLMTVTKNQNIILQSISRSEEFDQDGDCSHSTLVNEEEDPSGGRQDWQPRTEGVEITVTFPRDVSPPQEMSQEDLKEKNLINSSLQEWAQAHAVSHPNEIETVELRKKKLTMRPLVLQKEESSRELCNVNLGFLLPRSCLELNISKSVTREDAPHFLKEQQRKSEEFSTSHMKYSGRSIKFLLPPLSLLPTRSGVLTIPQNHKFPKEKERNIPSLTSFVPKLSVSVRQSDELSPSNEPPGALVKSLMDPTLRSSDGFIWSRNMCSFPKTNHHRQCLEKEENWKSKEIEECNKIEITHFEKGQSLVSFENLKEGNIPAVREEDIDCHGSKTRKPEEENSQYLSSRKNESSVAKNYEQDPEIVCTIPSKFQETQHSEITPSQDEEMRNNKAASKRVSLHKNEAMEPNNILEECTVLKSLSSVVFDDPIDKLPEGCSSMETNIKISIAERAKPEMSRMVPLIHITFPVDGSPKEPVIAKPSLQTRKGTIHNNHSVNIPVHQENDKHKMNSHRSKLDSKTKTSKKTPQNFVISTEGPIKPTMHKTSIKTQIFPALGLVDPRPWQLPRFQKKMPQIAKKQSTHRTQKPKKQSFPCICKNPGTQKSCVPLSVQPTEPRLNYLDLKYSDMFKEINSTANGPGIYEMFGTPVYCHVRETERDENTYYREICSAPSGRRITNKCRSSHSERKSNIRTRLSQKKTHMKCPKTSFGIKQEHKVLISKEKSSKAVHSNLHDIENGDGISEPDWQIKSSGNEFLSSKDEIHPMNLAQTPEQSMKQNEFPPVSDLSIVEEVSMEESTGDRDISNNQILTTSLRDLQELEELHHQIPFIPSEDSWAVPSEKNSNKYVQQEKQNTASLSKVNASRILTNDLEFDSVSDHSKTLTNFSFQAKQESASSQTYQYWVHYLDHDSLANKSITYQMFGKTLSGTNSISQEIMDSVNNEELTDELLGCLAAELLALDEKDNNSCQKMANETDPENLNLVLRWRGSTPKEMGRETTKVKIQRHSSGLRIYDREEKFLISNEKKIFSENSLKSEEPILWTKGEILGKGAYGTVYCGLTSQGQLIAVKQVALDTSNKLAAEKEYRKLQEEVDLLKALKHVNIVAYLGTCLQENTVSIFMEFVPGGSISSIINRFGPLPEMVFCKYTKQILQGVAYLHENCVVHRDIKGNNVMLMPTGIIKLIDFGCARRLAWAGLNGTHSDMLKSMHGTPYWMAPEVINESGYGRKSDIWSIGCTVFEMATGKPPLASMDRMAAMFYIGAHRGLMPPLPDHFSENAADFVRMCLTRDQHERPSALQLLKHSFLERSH
Nature of the assay: Commercial kinase activity assay (Millipore, 33P-ATP filter). The assay is classed as biochemical. As to conditions: 10 μM test compound. The procedure:
LOK (h) was incubated with 8 mM MOPS pH 7.0, 0.2 mM EDTA, 250 μM […], 10 mM MgAcetate and [γ-^33P-ATP] (specific activity approx. 500 cpm/pmol, concentration as required). The reaction was initiated by the addition of the MgATP mix. After incubation for 40 minutes at room temperature, the reaction was stopped by the addition of 3% phosphoric acid solution. 10 μL of the reaction was then spotted onto a P30 filtermat and washed three times for 5 minutes in 75 mM phosphoric acid and once in methanol prior to drying and scintillation counting. PI3K p110β/p85α (h) PI3K (p110β/p85α) (h) was incubated in assay buffer containing 10 μM phosphatidylinositol-4,5-bisphosphate and MgATP (concentration as required). The reaction was initiated by the addition of the MgATP mix. After incubation for 30 minutes at room temperature, the reaction was stopped by the addition of stop solution containing EDTA and biotinylated phosphatidylinositol-3,4,5-trisphosphate. Finally, detection buffer was added, which contains europium-labelled anti-GST monoclonal antibody, GST-tagged GRP1 PH domain and streptavidinallophycocyanin. The plate was then read in time-resolved fluorescence mode and the homogenous time-resolved fluorescence (HTRF®) signal determined according to the formula HTRF=10000×(Em665nm/Em620 nm). YSK4 (h) YSK4 (h) was incubated with 8 mM MOPS pH 7.0, 0.2 mM EDTA, 250 […], 10 mM MgAcetate and [γ-^33P-ATP] (specific activity approx. 500 cpm/pmol, concentration as required). The reaction was initiated by the addition of the MgATP mix. After incubation for 40 minutes at room temperature, the reaction was stopped by the addition of 3% phosphoric acid solution. 10 μL of the reaction was then spotted onto a P30 filtermat and washed three times for 5 minutes in 75 mM phosphoric acid and once in methanol prior to drying and scintillation counting. PI4KA (PI4K alpha) The 2× PI4KA (PI4K alpha)/PI Lipid Kinase Substrate mixture was prepared in 20 mM Tris, pH 7.5, 0.4% Triton X-100, 5 mM MgCl2, 0.5 mM EGTA. The final 10 μL Kinase Reaction consisted of 75-300 ng PI4KA (PI4K alpha) and 100 μM PI Lipid Kinase Substrate in 7.5 mM HEPES, 10 mM Tris, pH 7.5, 0.2% Triton X-100, 2.5 mM MgCl2, 0.25 mM EGTA. After the 1 hour Kinase Reaction incubation, 5 μL of Detection Mix consisting of a europium labeled anti-ADP antibody, an Alexa Fluor® 647 labeled ADP tracer, and EDTA (to stop the kinase reaction) was added to the assay well. ADP formed by the kinase reaction (in the absence of an inhibitor) displaced the Alexa Fluor® 647 labeled ADP tracer from the antibody, resulting in a decrease in the TR-FRET signal. […] PI4KB (PI4K beta) The 2× PI4KB (PI4K beta)/PI Lipid Kinase Substrate mixture was prepared in 50 mM HEPES pH 7.5, 0.1% CHAPS, 1 mM EGTA, 4 mM MgCl2. […]

For the molecule `Nc1nc(N2CCN(C(=O)COc3ccc(Cl)cc3)CC2)c2nc(-c3cccnc3)sc2n1` [formula (1), 5-amino-7-[4-(4-chlorophenoxyacetyl)piperazin-1-yl]-2-(pyridin-3-yl)thiazolo[5,4-d]pyrimidine], the Kinase activity is 108 percentage of control.
